Assay results taken from patent US10507193B2, “Ultra low dose doxepin and methods of using the same to treat sleep disorders” (Pernix Sleep, Inc., priority 2006, dated 2019).

Tests used:
Assay type in all cases: in vivo, human
[1] = system: patient suffering from chronic insomnia; test: Patient with chronic insomnia prescribed ultra low dose doxepin prior to bedtime
From the text: A patient suffers from chronic insomnia. The patient is otherwise healthy with normal affect with no depression, anxiety or substance overuse. The patient is prescribed doxepin in a daily dosage of 0.4 milligrams prior to bedtime. […] A patient suffers from chronic insomnia. The patient is otherwise healthy with normal affect with no depression, anxiety or substance overuse. The patient is prescribed doxepin in a daily dosage of 0.2 milligrams prior to bedtime. […] A patient suffers from chronic insomnia. The patient is otherwise healthy with normal affect with no depression, anxiety or substance overuse. The patient is prescribed doxepin in a daily dosage of 0.02 milligrams prior to bedtime. […] A patient suffers from chronic insomnia. The patient is otherwise healthy with normal affect with no depression, anxiety or substance overuse. The patient is prescribed doxepin in a daily dosage of 0.007 milligrams prior to bedtime. […] A patient suffers from chronic insomnia. The patient is otherwise healthy with normal affect with no depression, anxiety or substance overuse. The patient is prescribed doxepin in a daily dosage of 0.009 milligrams prior to bedtime. […] A patient suffers from chronic insomnia. The patient is otherwise healthy with normal affect with no depression, anxiety or substance overuse. The patient is prescribed doxepin in a daily dosage of 0.0002 milligrams prior to bedtime. […] A patient suffers from chronic insomnia. The patient also suffers from depression. The patient is prescribed doxepin in a daily dosage of 0.5 milligram prior to bedtime. […] A patient suffers from chronic insomnia. The patient also suffers from depression. The patient is prescribed doxepin in a daily dosage of 0.03 milligrams prior to bedtime. […] A patient suffers from chronic insomnia. The patient also suffers from depression. The patient is prescribed doxepin in a daily dosage of 0.05 milligrams prior to bedtime. […] A patient suffers from chronic insomnia. The patient also suffers from depression. The patient is prescribed doxepin in a daily dosage of 0.004 milligrams prior to bedtime. […] A patient suffers from chronic insomnia. The patient also suffers from depression. The patient is prescribed doxepin in a daily dosage of 0.0001 milligrams prior to bedtime. […] A patient suffers from chronic insomnia. The patient also suffers from depression. The patient is prescribed doxepin in a daily dosage of 0.0009 milligrams prior to bedtime.

[2] = system: patient suffering from a sleep disorder; test: Patient with a sleep disorder prescribed ultra low dose doxepin, salt or prodrug prior to bedtime; settings: daily dosage 0.1 milligram prior to bedtime
From the text: A patient suffers from a sleep disorder. The patient is prescribed doxepin in a daily dosage of 0.1 milligram prior to bedtime. […] A patient suffers from a sleep disorder. The patient is prescribed a pharmaceutically acceptable salt of doxepin in a daily dosage of 0.3 milligrams prior to bedtime. […] A patient suffers from a sleep disorder. The patient is prescribed a pharmaceutically acceptable salt of doxepin in a daily dosage of 0.009 milligrams prior to bedtime. […] A patient suffers from a sleep disorder. The patient is prescribed a pharmaceutically acceptable salt of doxepin in a daily dosage of 0.006 milligrams prior to bedtime. […] A patient suffers from a sleep disorder. The patient is prescribed a pharmaceutically acceptable salt of doxepin in a daily dosage of 0.0007 milligrams prior to bedtime. […] A patient suffers from a sleep disorder. The patient is prescribed a prodrug of doxepin in a daily dosage of 0.1 milligrams prior to bedtime. […] A patient suffers from a sleep disorder. The patient is prescribed a prodrug of doxepin in a daily dosage of 0.0006 milligrams prior to bedtime. […] A patient suffers from a sleep disorder. The patient is prescribed a prodrug of doxepin in a daily dosage of 0.05 milligrams prior to bedtime. […] A patient suffers from a sleep disorder. The patient is prescribed a prodrug of doxepin in a daily dosage of 0.004 milligrams prior to bedtime. […]

[3] = system: patient suffering from transient or short term insomnia; test: Patient with transient or short term insomnia prescribed ultra low dose doxepin prior to bedtime
From the text: A patient suffers from transient or short term insomnia. The patient is otherwise healthy with normal affect with no depression, anxiety or substance overuse. The patient is prescribed doxepin in a daily dosage of 0.4 milligrams, prior to bedtime. […] A patient suffers from transient or short term insomnia. The patient is otherwise healthy with normal affect with no depression, anxiety or substance overuse. The patient is prescribed doxepin in a daily dosage of 0.08 milligrams, prior to bedtime. […] A patient suffers from transient or short term insomnia. The patient is otherwise healthy with normal affect with no depression, anxiety or substance overuse. The patient is prescribed doxepin in a daily dosage of 0.009 milligrams, prior to bedtime. […] A patient suffers from transient or short term insomnia. The patient is otherwise healthy with normal affect with no depression, anxiety or substance overuse. The patient is prescribed doxepin in a daily dosage of 0.0005 milligrams prior to bedtime. […] A patient suffers from transient or short term insomnia. The patient also suffers from depression. The patient is prescribed doxepin in a daily dosage of 0.3 milligrams, prior to bedtime. […] A patient suffers from transient or short term insomnia. The patient also suffers from depression. The patient is prescribed doxepin in a daily dosage of 0.1 milligrams, prior to bedtime. […] A patient suffers from transient or short term insomnia. The patient also suffers from depression. The patient is prescribed doxepin in a daily dosage of 0.006 milligrams, prior to bedtime. […] A patient suffers from transient or short term insomnia. The patient is otherwise healthy with normal affect with no depression, anxiety or substance overuse. The patient is prescribed doxepin in a daily dosage of 0.008 milligrams, prior to bedtime. […] A patient suffers from transient or short term insomnia. The patient also suffers from depression. The patient is prescribed doxepin in a daily dosage of 0.001 milligrams, prior to bedtime. […] A patient suffers from transient or short term insomnia. The patient also suffers from depression. The patient is prescribed doxepin in a daily dosage of 0.0003 milligrams prior to bedtime.

[4] = otherwise healthy, no depression, daily dosage 0.009 milligrams prior to bedtime
[5] = otherwise healthy, no depression, daily dosage 0.4 milligrams prior to bedtime

Measured: relief of insomnia

CN(C)CCC=C1c2ccccc2COc2ccccc21 [doxepin, 11-(3-dimethylaminopropylidene)-6,11-dihydrodibenzo-[b,e]-oxepine]
relieves the insomnia: [1]; otherwise healthy, no depression, daily dosage 0.0002 milligrams prior to bedtime | [1]; otherwise healthy, no depression, daily dosage 0.007 milligrams prior to bedtime | [1]; [4] | [1]; otherwise healthy, no depression, daily dosage 0.02 milligrams prior to bedtime | [1]; otherwise healthy, no depression, daily dosage 0.2 milligrams prior to bedtime | [1]; [5] | [1]; patient also suffers from depression, daily dosage 0.0001 milligrams prior to bedtime | [1]; patient also suffers from depression, daily dosage 0.0009 milligrams prior to bedtime | [1]; patient also suffers from depression, daily dosage 0.004 milligrams prior to bedtime | [1]; patient also suffers from depression, daily dosage 0.03 milligrams prior to bedtime | [1]; patient also suffers from depression, daily dosage 0.05 milligrams prior to bedtime | [1]; patient also suffers from depression, daily dosage 0.5 milligram prior to bedtime | [2] | [3]; otherwise healthy, no depression, daily dosage 0.0005 milligrams prior to bedtime | [3]; otherwise healthy, no depression, daily dosage 0.008 milligrams prior to bedtime | [3]; [4] | [3]; otherwise healthy, no depression, daily dosage 0.08 milligrams prior to bedtime | [3]; [5] | [3]; patient also suffers from depression, daily dosage 0.0003 milligrams prior to bedtime | [3]; patient also suffers from depression, daily dosage 0.001 milligrams prior to bedtime | [3]; patient also suffers from depression, daily dosage 0.006 milligrams prior to bedtime | [3]; patient also suffers from depression, daily dosage 0.1 milligrams prior to bedtime | [3]; patient also suffers from depression, daily dosage 0.3 milligrams prior to bedtime
